Values quoted from earlier work, collected in patent US9873698B2, “Spirocycles as inhibitors of 11-beta hydroxyl steroid dehydrogenase type 1” (Incyte Corporation, priority 2007, dated 2018).

Molecular target: T1, 11βHSD1 (Homo sapiens, UniProt P28845)
T1 construct: host or cells: healthy volunteers, eye (in vivo)
Details: healthy volunteers, after seven days of carbenoxolone treatment

T1 sequence (P28845 whole entry): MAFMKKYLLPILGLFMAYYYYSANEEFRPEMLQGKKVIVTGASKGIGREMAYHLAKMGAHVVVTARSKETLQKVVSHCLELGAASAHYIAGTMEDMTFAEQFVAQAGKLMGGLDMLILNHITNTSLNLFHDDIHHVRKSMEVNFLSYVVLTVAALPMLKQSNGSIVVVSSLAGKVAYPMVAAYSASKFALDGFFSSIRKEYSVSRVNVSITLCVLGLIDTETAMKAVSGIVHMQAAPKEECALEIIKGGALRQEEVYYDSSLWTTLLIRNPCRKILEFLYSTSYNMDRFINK

IOP reduced by: 18%
Compound: CC1(C)[C@@H](OC(=O)CCC(=O)O)CC[C@]2(C)[C@H]3C(=O)C=C4[C@@H]5C[C@@](C)(C(=O)O)CC[C@]5(C)CC[C@@]4(C)[C@]3(C)CC[C@@H]12 [carbenoxolone]
